Laboratory results from patent US9688684B2, “Substituted tetrazolo[1,5-a]pyrazines as ROR-gamma inhibitors” (Merck Patent GmbH, priority 2013, dated 2017).

Legend:
[1] = target: RORγ Ligand binding domain (RORγ-LBD, aa 238-497, NP_001001523) (Homo sapiens (Human), UniProt P51449); assay: ROR γ GAI4 Reporter Gene Assay (Mammalian one-hybrid, M1H) in 293T cells; format: cell-based
Text: ROR γ GAI4 Reporter Gene Assay
A Mammalian one-hybrid system is used to perform a cell-based functional transactivation assay for detecting RORγ activity modulators.
The Mammalian-1-Hybrid is derived from the Mammalian-2-Hybrid setup. Whereas in the latter, the binding partners are defined in their role as interaction, transactivation and DNA-binding components, the Mammalian-1-Hybrid makes use of the fact that all mammalian cell types express a set of Nuclear Receptors and their associated cofactors. […] A Gal4 minimal promoter driven luciferase construct (pFR-Luc from Stratagene, containing a synthetic promoter with five tandem repeats of the yeast GAL4 binding sites controlling expression of the Photinus pyralis luciferase gene) is used as reporter. The Gal4-DBD-NR-LBD fusion protein by itself cannot initiate transcription and is dependent on the presence of cofactors present in the cellular system used.
In order to rule out cytotoxic and unspecific transcriptional compound effects a transfection with a firefly luciferase driven by the constitutive CMV promoter is performed in parallel.
After transfection 18 μl complete MEM medium containing 3% charcoal-dextran treated FBS is added as well as 4 μl test compounds (DMSO stocks prediluted in OptiMem (Invitrogen)) followed by incubation for 16-24 h at 37° C., 5% CO2 and 90% rH.
Firefly luciferase activity is measured using the Promega ONE-Glo™ Luciferase Assay System.

[2] = target: human RORγ ligand binding domain (GST-hRORγ-LBD) (Homo sapiens (Human), UniProt P51449); assay: TR-FRET assay (biochemical cofactor interaction assay, GST-hRORγ-LBD / TRAP220 peptide)
Text: RORγ is an orphan member of the nuclear receptor (NR) family displaying constitutive activity. The activity of nuclear receptors can be modulated by ligand-induced cofactor protein interactions. For example, agonist binding leads to recruitment of coactivator protein, and antagonist binding either blocks coactivator interaction or facilitates the recruitment of corepressors. […] The conformational change induced by ligand binding influences interactions with LXXLL motif peptides.
RORγ (t) is a thymus-specific isoform of RORγ which is widely expressed. It shares the same ligand binding domain (LBD) sequence with RORγ. Thus, a screen using the LBD will yield antagonists targeting both RORγ and RORγt.
In order to identify compounds which block activity of the human nuclear receptor Retinoid-related Orphan Receptor gamma (RORγ) a biochemical cofactor interaction assay based on the TR-FRET principle is performed. […] The ligand-binding domain (LBD) of RORγ is expressed as fusion protein with GST in […] cells using the vector pDEST15. Cells are lysed by lysozyme-treatment and sonication, and the fusion proteins purified over glutathione sepharose (Pharmacia) according to the manufacturers instructions. The strong constitutive interaction is disrupted upon binding of functional antagonists. The strength of the interaction is monitored by TR-FRET between streptavidine APC interacting with the biotinylated peptide and Europium-labelled Anti-GST.

human RORγ ligand binding domain (GST-hRORγ-LBD), sequence (P51449 269-508): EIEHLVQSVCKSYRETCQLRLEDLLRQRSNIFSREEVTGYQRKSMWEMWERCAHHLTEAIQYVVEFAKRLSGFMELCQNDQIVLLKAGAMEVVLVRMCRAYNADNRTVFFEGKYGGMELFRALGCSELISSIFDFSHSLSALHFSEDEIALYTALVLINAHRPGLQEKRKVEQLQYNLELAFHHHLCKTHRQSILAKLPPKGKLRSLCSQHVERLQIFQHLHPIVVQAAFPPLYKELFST
RORγ Ligand binding domain (RORγ-LBD, aa 238-497, NP_001001523), sequence (P51449 259-518): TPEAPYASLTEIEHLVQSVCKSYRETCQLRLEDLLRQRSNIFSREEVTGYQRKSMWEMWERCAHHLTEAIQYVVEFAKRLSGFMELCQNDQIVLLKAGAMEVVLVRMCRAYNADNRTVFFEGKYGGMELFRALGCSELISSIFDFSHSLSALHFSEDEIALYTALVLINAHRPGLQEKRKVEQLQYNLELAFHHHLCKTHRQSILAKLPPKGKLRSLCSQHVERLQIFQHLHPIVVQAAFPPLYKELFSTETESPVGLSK

| IC50 [2] [µM] | Structure (SMILES) | IC50 [1] [µM] |
| --- | --- | --- |
| 9.9 to 40 | CC(C)c1nn(-c2ccccc2)cc1CN1CCn2nnnc2C1c1ccc2c(c1)OCO2 (stereo not drawn) [Compound 29, 8-Benzo[1,3]dioxol-5-yl-7-(3-isopropyl-1-phenyl-1H-pyrazol-4-ylmethyl)-5,6,7,8-tetrahydro-tetrazolo[1,5-a]pyrazine] |  |
| 9.9 to 40 | Fc1ccc(F)c(CN2CCn3nnnc3C2c2cc(F)ccc2F)c1 (stereo not drawn) [Compound 32, 7-(2,5-Difluoro-benzyl)-8-(2,5-difluoro-phenyl)-5,6,7,8-tetrahydro-tetrazolo[1,5-a]pyrazine] |  |
| 9.9 to 40 | Fc1ccc(F)c(C2c3nnnn3CCN2Cc2cccc(F)c2F)c1 (stereo not drawn) [Compound 35, 7-(2,3-Difluoro-benzyl)-8-(2,5-difluoro-phenyl)-5,6,7,8-tetrahydro-tetrazolo[1,5-a]pyrazine] |  |
| 9.9 to 40 | CCOc1ccc(C2c3nnnn3CCN2Cc2cn(-c3ccccc3)nc2C(C)C)cc1 (stereo not drawn) [Compound 43, 8-(4-Ethoxy-phenyl)-7-(3-isopropyl-1-phenyl-1H-pyrazol-4-ylmethyl)-5,6,7,8-tetrahydro-tetrazolo[1,5-a]pyrazine] |  |
| 9.9 to 40 | CCOc1ccc(C2c3nnnn3CCN2CC2CCCCC2)cc1 (stereo not drawn) [Compound 44, 7-Cyclohexylmethyl-8-(4-ethoxy-phenyl)-5,6,7,8-tetrahydro-tetrazolo[1,5-a]pyrazine] |  |
| 9.9 to 40 | CCOc1ccc(C2c3nnnn3CCN2Cc2cccc(F)c2F)cc1 (stereo not drawn) [Compound 45, 7-(2,3-Difluoro-benzyl)-8-(4-ethoxy-phenyl)-5,6,7,8-tetrahydro-tetrazolo[1,5-a]pyrazine] |  |
| 9.9 to 40 | c1csc(CN2CCn3nnnc3C2c2cccs2)c1 (stereo not drawn) [Compound 47, 8-Thiophen-2-yl-7-thiophen-2-ylmethyl-5,6,7,8-tetrahydro-tetrazolo[1,5-a]pyrazine] |  |
| 9.9 to 40 | Cc1cccc(CN2CCn3nnnc3C2c2cn(-c3ccccc3)nc2C(C)C)c1 (stereo not drawn) [Compound 57, 8-(3-Isopropyl-1-phenyl-1H-pyrazol-4-yl)-7-(3-methyl-benzyl)-5,6,7,8-tetrahydro-tetrazolo[1,5-a]pyrazine] |  |
| 9.9 to 40 | CC(C)c1nn(-c2ccccc2)cc1CN1CCn2nnnc2C1c1cn(-c2ccccc2)nc1C(C)C (stereo not drawn) [Compound 62, 8-(3-Isopropyl-1-phenyl-1H-pyrazol-4-yl)-7-(3-isopropyl-1-phenyl-1H-pyrazol-4-ylmethyl)-5,6,7,8-tetrahydro-tetrazolo[1,5-a]pyrazine] |  |
| 9.9 to 40 | CC(C)Oc1ccc(CN2CCn3nnnc3C2C2CCCCC2)cc1 (stereo not drawn) [Compound 64, 8-Cyclohexyl-7-(4-isopropoxy-benzyl)-5,6,7,8-tetrahydro-tetrazolo[1,5-a]pyrazine] |  |
| 9.9 to 40 | CN(C)c1ccc(CN2CCn3nnnc3C2C2CCCCC2)cc1 (stereo not drawn) [Compound 66, [4-(8-Cyclohexyl-5,6-dihydro-8H-tetrazolo[1,5-a]pyrazin-7-ylmethyl)-phenyl]-dimethyl-amine] |  |
| 9.9 to 40 | CCOc1ccc(CN2CCn3nnnc3C2C2CCCCC2)cc1 (stereo not drawn) [Compound 67, 8-Cyclohexyl-7-(4-ethoxy-benzyl)-5,6,7,8-tetrahydro-tetrazolo[1,5-a]pyrazine] |  |
| 9.9 to 40 | C1CCC(CN2CCn3nnnc3C2C2CCCCC2)CC1 (stereo not drawn) [Compound 69, 8-Cyclohexyl-7-cyclohexylmethyl-5,6,7,8-tetrahydro-tetrazolo[1,5-a]pyrazine] |  |
| 9.9 to 40 | Fc1ccc(F)c(CN2CCn3nnnc3C2c2cccc(F)c2F)c1 (stereo not drawn) [Compound 74, 7-(2,5-Difluoro-benzyl)-8-(2,3-difluoro-phenyl)-5,6,7,8-tetrahydro-tetrazolo[1,5-a]pyrazine] |  |
| 9.9 to 40 | Fc1cccc(CN2CCn3nnnc3C2c2cccc(F)c2F)c1F (stereo not drawn) [Compound 79, 7-(2,3-Difluoro-benzyl)-8-(2,3-difluoro-phenyl)-5,6,7,8-tetrahydro-tetrazolo[1,5-a]pyrazine] |  |
| 9.9 to 40 | O=C(c1cccc(Br)c1)N1CCn2nnnc2C1c1cccc(F)c1 (stereo not drawn) [Compound 82, (3-Bromo-phenyl)-[8-(3-fluoro-phenyl)-5,6-dihydro-8H-tetrazolo[1,5-a]pyrazin-7-yl]-methanone] |  |
| 9.9 to 40 | Cn1ccc(CN2CCn3nnnc3C2c2ccc(F)cc2)n1 (stereo not drawn) [Compound 85, 8-(4-Fluoro-phenyl)-7-(1-methyl-1H-pyrazol-3-ylmethyl)-5,6,7,8-tetrahydro-tetrazolo[1,5-a]pyrazine] |  |
| 9.9 to 40 | Cc1cccc(CN2CCn3nnnc3C2c2ccccn2)c1 (stereo not drawn) [Compound 86, 7-(3-Methyl-benzyl)-8-pyridin-2-yl-5,6,7,8-tetrahydro-tetrazolo[1,5-a]pyrazine] |  |
| 9.9 to 40 | Cc1cccc(CN2CCn3nnnc3C2c2ccncc2)c1 (stereo not drawn) [Compound 87, 7-(3-Methyl-benzyl)-8-pyridin-4-yl-5,6,7,8-tetrahydro-tetrazolo[1,5-a]pyrazine] |  |
| 9.9 to 40 | COc1ccc(OC)c(C2c3nnnn3CCN2Cc2cccc(F)c2F)c1 (stereo not drawn) [Compound 151, 7-(2,3-Difluoro-benzyl)-8-(2,5-dimethoxy-phenyl)-5,6,7,8-tetrahydro-tetrazolo[1,5-a]pyrazine] |  |
| 9.9 to 40 | CC(C)c1nn(-c2ccccc2)cc1C1c2nnnn2CCN1Cc1ccn[nH]1 (stereo not drawn) [Compound 153, 8-(3-Isopropyl-1-phenyl-1H-pyrazol-4-yl)-7-(2H-pyrazol-3-ylmethyl)-5,6,7,8-tetrahydro-tetrazolo[1,5-a]pyrazine] |  |
| 9.9 to 40 | CCn1cc(CN2CCn3nnnc3C2c2cn(-c3ccccc3)nc2C(C)C)cn1 (stereo not drawn) [Compound 155, 7-(1-Ethyl-1H-pyrazol-4-ylmethyl)-8-(3-isopropyl-1-phenyl-1H-pyrazol-4-yl)-5,6,7,8-tetrahydro-tetrazolo[1,5-a]pyrazine] |  |
| 9.9 to 40 | Cc1nn(C)c(C)c1CN1CCn2nnnc2C1c1cn(-c2ccccc2)nc1C(C)C (stereo not drawn) [Compound 157, 8-(3-Isopropyl-1-phenyl-1H-pyrazol-4-yl)-7-(1,3,5-trimethyl-1H-pyrazol-4-ylmethyl)-5,6,7,8-tetrahydro-tetrazolo[1,5-a]pyrazine] |  |

| Structure (SMILES) | IC50 [2] [µM] | IC50 [1] [µM] |
| --- | --- | --- |
| CC(C)c1nn(-c2ccccc2)cc1C1c2nnnn2CCN1Cc1cccs1 (racemic) [Compound 61, 8-(3-Isopropyl-1-phenyl-1H-pyrazol-4-yl)-7-thiophen-2-ylmethyl-5,6,7,8-tetrahydro-tetrazolo[1,5-a]pyrazine] | 0.01 to 0.99 | 0.01 to 0.99 |
| Fc1ccc(CN2CCn3nnnc3C2c2cccc(F)c2)cc1 (racemic) [Compound 91, 7-(4-Fluoro-benzyl)-8-(3-fluoro-phenyl)-5,6,7,8-tetrahydro-tetrazolo[1,5-a]pyrazine] | 0.99 to 9.9 | 0.01 to 0.99 |
| Cc1cccc(CN2CCn3nnnc3C2c2ccc(F)cc2)c1 (racemic) [Compound 93, 8-(4-Fluoro-phenyl)-7-(3-methyl-benzyl)-5,6,7,8-tetrahydro-tetrazolo[1,5-a]pyrazine] | 0.01 to 0.99 | 9.9 to 40 |
| Fc1ccc(C2c3nnnn3CCN2Cc2cccc(Br)c2)cc1 (racemic) [Compound 96, 7-(3-Bromo-benzyl)-8-(4-fluoro-phenyl)-5,6,7,8-tetrahydro-tetrazolo[1,5-a]pyrazine] | 0.01 to 0.99 | 0.99 to 9.9 |
| CC(C)c1nn(-c2ccccc2)cc1C1c2nnnn2CCN1Cc1cccs1 (single isomer, unassigned) [Compound 61-a, 8-(3-Isopropyl-1-phenyl-1H-pyrazol-4-yl)-7-thiophen-2-ylmethyl-5,6,7,8-tetrahydro-tetrazolo[1,5-a]pyrazine] | 0.01 to 0.99 | 0.01 to 0.99 |
| CC(C)c1nn(-c2ccccc2)cc1C1c2nnnn2CCN1Cc1cccs1 (single isomer, unassigned) [Compound 61-b, 8-(3-Isopropyl-1-phenyl-1H-pyrazol-4-yl)-7-thiophen-2-ylmethyl-5,6,7,8-tetrahydro-tetrazolo[1,5-a]pyrazine] | 9.9 to 40 | 0.99 to 9.9 |
| Fc1ccc(CN2CCn3nnnc3C2c2cccc(F)c2)cc1 (single isomer, unassigned) [Compound 91-b, 7-(4-Fluoro-benzyl)-8-(3-fluoro-phenyl)-5,6,7,8-tetrahydro-tetrazolo[1,5-a]pyrazine] | 0.99 to 9.9 | 0.99 to 9.9 |
| Cc1cccc(CN2CCn3nnnc3C2c2ccc(F)cc2)c1 (single isomer, unassigned) [Compound 93-a, 8-(4-Fluoro-phenyl)-7-(3-methyl-benzyl)-5,6,7,8-tetrahydro-tetrazolo[1,5-a]pyrazine] | 0.01 to 0.99 | 0.99 to 9.9 |
